Source: ChEMBL document CHEMBL1145534 (2007)
Values after ≈ are worked out from the molar mass of the structure shown.

Columns and labels:
Format in all cases: functional
[1] = test system: Corynebacterium sp.; assay: Antimicrobial activity against Corynebacterium spp. by broth microdilution method
[2] = test system: Corynebacterium striatum; assay: Antimicrobial activity against Corynebacterium striatum at 0.5 ug/ml by broth microdilution method
[3] = test system: Listeria monocytogenes; assay: Antimicrobial activity against Listeria monocytogenes by broth microdilution method
[4] = test system: Enterococcus casseliflavus; assay: Antimicrobial activity against Enterococcus casseliflavus by broth microdilution method
[5] = test system: Streptococcus parasanguinis; assay: Antimicrobial activity against viridans group Streptococcus parasanguis at <= 0.06 ug/ml by broth microdilution method
[6] = test system: Streptococcus constellatus; assay: Antimicrobial activity against viridans group Streptococcus constellatus at 0.12 ug/ml by broth microdilution method
[7] = test system: Streptococcus mutans; assay: Antimicrobial activity against viridans group Streptococcus mutans at 2 ug/ml by broth microdilution method
[8] = test system: Streptococcus anginosus; assay: Antimicrobial activity against viridans group Streptococcus anginosus at <= 0.06 ug/ml by broth microdilution method
[9] = test system: Aerococcus; assay: Antimicrobial activity against Aerococcus spp. at <= 0.06 ug/ml by broth microdilution method
[10] = test system: Streptococcus salivarius; assay: Antimicrobial activity against viridans group Streptococcus salivarius at <= 0.06 ug/ml by broth microdilution method
[11] = test system: Listeria monocytogenes; assay: Antimicrobial activity against Listeria monocytogenes at 2 ug/ml by broth microdilution method
[12] = test system: Streptococcus parasanguinis; assay: Antimicrobial activity against viridans group Streptococcus parasanguis at 1 ug/ml by broth microdilution method
[13] = test system: Bacillus cereus; assay: Antimicrobial activity against Bacillus cereus by broth microdilution method
[14] = test system: Enterococcus durans; assay: Antimicrobial activity against Enterococcus durans at 1 ug/ml by broth microdilution method
[15] = test system: Micrococcus luteus; assay: Antimicrobial activity against Micrococcus luteus at <= 0.06 ug/ml by broth microdilution method
[16] = test system: Streptococcus intermedius; assay: Antimicrobial activity against viridans group Streptococcus intermedius at 1 ug/ml by broth microdilution method
[17] = test system: Listeria monocytogenes; assay: Antimicrobial activity against Listeria monocytogenes at 0.25 ug/ml by broth microdilution method
[18] = test system: Aerococcus; assay: Antimicrobial activity against Aerococcus spp. at 1 ug/ml by broth microdilution method
[19] = test system: Corynebacterium sp.; assay: Antimicrobial activity against Corynebacterium spp. at <= 0.06 ug/ml by broth microdilution method
[20] = test system: Enterococcus raffinosus; assay: Antimicrobial activity against Enterococcus raffinosus at <= 0.06 ug/ml by broth microdilution method
[21] = test system: Streptococcus salivarius; assay: Antimicrobial activity against viridans group Streptococcus salivarius at 0.5 ug/ml by broth microdilution method
[22] = test system: Streptococcus constellatus; assay: Antimicrobial activity against viridans group Streptococcus constellatus by broth microdilution method
[23] = test system: Streptococcus sanguinis; assay: Antimicrobial activity against viridans group Streptococcus sanguinis by broth microdilution method
[24] = test system: Streptococcus vestibularis; assay: Antimicrobial activity against viridans group Streptococcus vestibularis at <= 0.06 ug/ml by broth microdilution method
[25] = test system: Enterococcus durans; assay: Antimicrobial activity against Enterococcus durans at 0.25 ug/ml by broth microdilution method
[26] = test system: Streptococcus salivarius; assay: Antimicrobial activity against viridans group Streptococcus salivarius at 1 ug/ml by broth microdilution method
[27] = test system: Streptococcus gordonii; assay: Antimicrobial activity against viridans group Streptococcus gordonii by broth microdilution method
[28] = test system: Streptococcus oralis; assay: Antimicrobial activity against viridans group Streptococcus oralis at 0.25 ug/ml by broth microdilution method
[29] = test system: Streptococcus anginosus; assay: Antimicrobial activity against viridans group Streptococcus anginosus at 0.25 ug/ml by broth microdilution method
[30] = test system: Streptococcus parasanguinis; assay: Antimicrobial activity against viridans group Streptococcus parasanguis by broth microdilution method
[31] = test system: Streptococcus gordonii; assay: Antimicrobial activity against viridans group Streptococcus gordonii at <= 0.06 ug/ml by broth microdilution method
[32] = test system: Streptococcus; assay: Antimicrobial activity against beta hemolytic Streptococcus group C at <= 0.06 ug/ml by broth microdilution method
[33] = test system: Bacillus sp.; assay: Antimicrobial activity against Bacillus spp. at 0.12 ug/ml by broth microdilution method; conditions: Bacillus sp. (in: firmicutes)
[34] = test system: Streptococcus oralis; assay: Antimicrobial activity against viridans group Streptococcus oralis at <= 0.06 ug/ml by broth microdilution method
[35] = test system: Streptococcus intermedius; assay: Antimicrobial activity against viridans group Streptococcus intermedius at 2 ug/ml by broth microdilution method
[36] = test system: Streptococcus equinus; assay: Antimicrobial activity against viridans group Streptococcus bovis at 2 ug/ml by broth microdilution method
[37] = test system: Bacillus sp.; assay: Antimicrobial activity against Bacillus spp. at 2 ug/ml by broth microdilution method; conditions: Bacillus sp. (in: firmicutes)
[38] = test system: Streptococcus sanguinis; assay: Antimicrobial activity against viridans group Streptococcus sanguinis at <= 0.06 ug/ml by broth microdilution method
[39] = test system: Micrococcus luteus; assay: Antimicrobial activity against Micrococcus luteus at 1 ug/ml by broth microdilution method
[40] = test system: Corynebacterium pseudodiphtheriticum; assay: Antimicrobial activity against Corynebacterium pseudodiphtheriticum at 0.12 ug/ml by broth microdilution method
[41] = test system: Streptococcus equinus; assay: Antimicrobial activity against viridans group Streptococcus bovis at 1 ug/ml by broth microdilution method
[42] = test system: Streptococcus sanguinis; assay: Antimicrobial activity against viridans group Streptococcus sanguinis at 0.5 ug/ml by broth microdilution method
[43] = test system: Enterococcus hirae; assay: Antimicrobial activity against Enterococcus hirae at 0.12 ug/ml by broth microdilution method
[44] = test system: Enterococcus raffinosus; assay: Antimicrobial activity against Enterococcus raffinosus at 0.12 ug/ml by broth microdilution method
[45] = test system: Streptococcus oralis; assay: Antimicrobial activity against viridans group Streptococcus oralis at 1 ug/ml by broth microdilution method
[46] = test system: Enterococcus durans; assay: Antimicrobial activity against Enterococcus durans at <= 0.06 ug/ml by broth microdilution method
[47] = test system: Listeria monocytogenes; assay: Antimicrobial activity against Listeria monocytogenes at <= 0.06 ug/ml by broth microdilution method
[48] = test system: Streptococcus; assay: Antimicrobial activity against beta hemolytic Streptococcus group C at 0.5 ug/ml by broth microdilution method
[49] = test system: Bacillus cereus; assay: Antimicrobial activity against Bacillus cereus at 2 ug/ml by broth microdilution method
[50] = test system: Streptococcus salivarius; assay: Antimicrobial activity against viridans group Streptococcus salivarius at 2 ug/ml by broth microdilution method
[51] = test system: Streptococcus sanguinis; assay: Antimicrobial activity against viridans group Streptococcus sanguinis at 0.12 ug/ml by broth microdilution method
[52] = test system: Enterococcus gallinarum; assay: Antimicrobial activity against Enterococcus gallinarum at 0.25 ug/ml by broth microdilution method
[53] = test system: Streptococcus oralis; assay: Antimicrobial activity against viridans group Streptococcus oralis at by broth microdilution method
[54] = test system: Bacillus sp.; assay: Antimicrobial activity against Bacillus spp. at 0.5 ug/ml by broth microdilution method; conditions: Bacillus sp. (in: firmicutes)
[55] = test system: Streptococcus vestibularis; assay: Antimicrobial activity against viridans group Streptococcus vestibularis at 0.12 ug/ml by broth microdilution method

CC(=O)NC[C@H]1CN(c2ccc(N3CCOCC3)c(F)c2)C(=O)O1 [LINEZOLID]
MIC50 [1]: 0.25 mg/L (≈ 0.741 µM)
MIC90 [1]: 0.5 mg/L (≈ 1.48 µM)
inhibition at 0.5 µg/mL [2]: 100%
MIC50 [3]: 2 mg/L (≈ 5.93 µM)
MIC90 [3]: 2 mg/L (≈ 5.93 µM)
MIC50 [4]: 2 mg/L (≈ 5.93 µM)
MIC90 [4]: 2 mg/L (≈ 5.93 µM)
Inhibition [5]: 0%
inhibition at 0.12 µg/mL [6]: 3.4%
inhibition at 2 µg/mL [7]: 100%
Inhibition [8]: 2.9%
Inhibition [9]: 0%
Inhibition [10]: 0%
inhibition at 2 µg/mL [11]: 100%
inhibition at 1 µg/mL [12]: 100%
MIC50 [13]: 1 mg/L (≈ 2.96 µM)
MIC90 [13]: 1 mg/L (≈ 2.96 µM)
inhibition at 1 µg/mL [14]: 32.7%
Inhibition [15]: 0%
inhibition at 1 µg/mL [16]: 87.9%
inhibition at 0.25 µg/mL [17]: 0%
inhibition at 1 µg/mL [18]: 63.6%
Inhibition [19]: 2.1%
Inhibition [20]: 0%
inhibition at 0.5 µg/mL [21]: 46.2%
MIC50 [22]: 1 mg/L (≈ 2.96 µM)
MIC90 [22]: 1 mg/L (≈ 2.96 µM)
MIC50 [23]: 1 mg/L (≈ 2.96 µM)
MIC90 [23]: 1 mg/L (≈ 2.96 µM)
Inhibition [24]: 0%
inhibition at 0.25 µg/mL [25]: 2%
inhibition at 1 µg/mL [26]: 98.9%
MIC50 [27]: 1 mg/L (≈ 2.96 µM)
MIC90 [27]: 1 mg/L (≈ 2.96 µM)
inhibition at 0.25 µg/mL [28]: 3.6%
inhibition at 0.25 µg/mL [29]: 7.7%
MIC50 [30]: 0.5 mg/L (≈ 1.48 µM)
MIC90 [30]: 1 mg/L (≈ 2.96 µM)
Inhibition [31]: 0%
Inhibition [32]: 1.5%
inhibition at 0.12 µg/mL [33]: 0.7%
Inhibition [34]: 0.7%
inhibition at 2 µg/mL [35]: 100%
inhibition at 2 µg/mL [36]: 100%
inhibition at 2 µg/mL [37]: 100%
Inhibition [38]: 0%
inhibition at 1 µg/mL [39]: 100%
inhibition at 0.12 µg/mL [40]: 0%
inhibition at 1 µg/mL [41]: 87.2%
inhibition at 0.5 µg/mL [42]: 36.6%
inhibition at 0.12 µg/mL [43]: 0%
inhibition at 0.12 µg/mL [44]: 0%
inhibition at 1 µg/mL [45]: 96.4%
Inhibition [46]: 0%
Inhibition [47]: 0%
inhibition at 0.5 µg/mL [48]: 16.6%
inhibition at 2 µg/mL [49]: 100%
inhibition at 2 µg/mL [50]: 100%
inhibition at 0.12 µg/mL [51]: 0.7%
inhibition at 0.25 µg/mL [52]: 0%
MIC50 [53]: 1 mg/L (≈ 2.96 µM)
MIC90 [53]: 1 mg/L (≈ 2.96 µM)
inhibition at 0.5 µg/mL [54]: 31.7%
inhibition at 0.12 µg/mL [55]: 0%
